By Ki is commonly meant a measure of affinity in units of concentration, obtained from inhibition or displacement.

The target of the assay is T1, human NEP (Homo sapiens, UniProt P08473).
T1 construct: purchased R&D Systems, Minneapolis, Minn; 1182-ZN
T1 sequence (P08473 52-750 limits assumed): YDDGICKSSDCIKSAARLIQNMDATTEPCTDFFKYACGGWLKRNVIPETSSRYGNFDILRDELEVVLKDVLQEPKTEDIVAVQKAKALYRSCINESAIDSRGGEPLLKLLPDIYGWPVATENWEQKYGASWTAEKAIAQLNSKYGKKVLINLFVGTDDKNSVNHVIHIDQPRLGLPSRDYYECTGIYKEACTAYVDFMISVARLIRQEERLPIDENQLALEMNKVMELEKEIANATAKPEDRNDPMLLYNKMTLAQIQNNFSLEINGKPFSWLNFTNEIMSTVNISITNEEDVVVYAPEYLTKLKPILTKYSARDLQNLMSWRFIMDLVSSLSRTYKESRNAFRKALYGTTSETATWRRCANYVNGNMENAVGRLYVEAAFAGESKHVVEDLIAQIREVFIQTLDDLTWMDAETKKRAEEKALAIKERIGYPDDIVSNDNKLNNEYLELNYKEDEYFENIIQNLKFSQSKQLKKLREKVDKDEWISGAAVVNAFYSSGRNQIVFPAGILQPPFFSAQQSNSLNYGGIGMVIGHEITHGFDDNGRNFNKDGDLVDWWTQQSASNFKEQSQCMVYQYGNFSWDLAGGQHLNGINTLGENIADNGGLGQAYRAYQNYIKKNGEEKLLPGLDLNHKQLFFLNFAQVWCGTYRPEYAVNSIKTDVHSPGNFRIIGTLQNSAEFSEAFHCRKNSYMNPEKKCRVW
Kind of assay: In vitro enzyme inhibition assay, inhibitor potency at human NEP (Assay 1). The format is biochemical. The following applies: recombinant human NEP; fluorogenic peptide substrate 10 μM; 37° C.; values given as ranges. How it is done: The inhibitory activities of compounds at human and rat neprilysin (EC 3.4.24.11; NEP) and human angiotensin converting enzyme (ACE) were determined using in vitro assays as described below.
Recombinant human NEP and recombinant human ACE were obtained commercially (R&D Systems, Minneapolis, Minn., catalog numbers 1182-ZN and 929-ZN, respectively). The fluorogenic peptide substrate Mca-D-Arg-Arg-Leu-Dap-(Dnp)-OH (Medeiros et al. (1997) Braz. J. Med. Biol. Res. 30:1157-62; Anaspec, San Jose, Calif.) and Abz-Phe-Arg-Lys(Dnp)-Pro-OH (Araujo et al. (2000) Biochemistry 39:8519-8525; Bachem, Torrance, Calif.) were used in the NEP and ACE assays respectively.
The assays were performed in 384-well white opaque plates at 37° C. using the fluorogenic peptide substrates at a concentration of 10 μM in Assay Buffer (NEP: 50 mM HEPES, pH 7.5, 100 mM NaCl, 0.01% polyethylene glycol sorbitan monolaurate (Tween-20), 10 μM ZnSO4; ACE: 50 mM HEPES, pH 7.5, 100 mM NaCl, 0.01% Tween-20, 1 μM ZnSO4).
Test compounds were assayed over the range of concentrations from […] to 20 μM. Test compounds were added to the enzymes and incubated for 30 minute at 37° C. prior to initiating the reaction by the addition of substrate. Reactions were terminated after 20 minutes of incubation at 37° C. by the addition of glacial acetic acid to a final concentration of 3.6% (v/v).
Plates were read on a fluorometer with excitation and emission wavelengths set to 320 nm and 405 nm, respectively. Inhibition constants were obtained by nonlinear regression of the data using the equation (GraphPad Software, Inc., San Diego, Calif.): ν=ν0/[1+(I/K′)] where ν is the reaction rate, ν0 is the uninhibited reaction rate, I is the inhibitor concentration and K′ is the apparent inhibition constant.
Compounds of the invention were tested in this assay and found to have pKi values at human NEP as follows.
Take `CCC(=O)C(=O)N[C@H](Cc1ccc(-c2cccc(Cl)c2)cc1)C[C@@H](O)C(=O)O` [Example 1, (2R,4R)-5-(3′-Chlorobiphenyl-4-yl)-2-hydroxy-4-(2-oxobutyrylamino)pentanoic Acid]: the Ki is 1 to 10 nM.
As for `CC(C)CC(=O)C(=O)N[C@H](Cc1ccc(-c2cccc(Cl)c2)cc1)C[C@@H](O)C(=O)O` [Example 2-1, (2R,4R)-5-(3′-Chloro-biphenyl-4-yl)-2-hydroxy-4-(4-methyl-2-oxo-pentanoylamino)-pentanoic acid], the Ki is 1 to 10 nM.
As to `O=C(Cc1ccccc1)C(=O)N[C@H](Cc1ccc(-c2cccc(Cl)c2)cc1)C[C@@H](O)C(=O)O` [Example 2-2, (2R,4R)-5-(3′-Chloro-biphenyl-4-yl)-2-hydroxy-4-(2-oxo-3-phenyl-propionylamino)-pentanoic acid], the Ki was 1 to 10 nM.
Still for that read-out and setting: then `O=C(N[C@H](Cc1ccc(-c2cccc(Cl)c2)cc1)C[C@@H](O)C(=O)O)C(=O)N1CCC[C@H]1CO` [Example 3, (2R,4R)-5-(3′-Chlorobiphenyl-4-yl)-2-hydroxy-4-[2-((S)-2-hydroxymethylpyrrolidin-1-yl)-2-oxo-acetylamino]pentanoic Acid], with at most 1 nM; and `O=C(NC1CCCC1)C(=O)N[C@H](Cc1ccc(-c2cccc(Cl)c2)cc1)C[C@@H](O)C(=O)O` [Example 4-1, (2R,4R)-5-(3′-Chlorobiphenyl-4-yl)-4-(cyclopentylaminooxalylamino)-2-hydroxypentanoic acid], with 10 to 31.6 nM.
On the same count and under the same terms, then `O=C(Nc1ccc(Br)nc1)C(=O)N[C@H](Cc1ccc(-c2cccc(Cl)c2)cc1)C[C@@H](O)C(=O)O` [Example 4-2, (2R,4R)-4-[(6-Bromopyridin-3-ylaminooxalyl)amino]-5-(3′-chlorobiphenyl-4-yl)-2-hydroxypentanoic acid], with 10 to 31.6 nM.
As for `O=C(Nc1ccncc1)C(=O)N[C@H](Cc1ccc(-c2cccc(Cl)c2)cc1)C[C@@H](O)C(=O)O` [Example 4-3, (2R,4R)-5-(3′-Chlorobiphenyl-4-yl)-2-hydroxy-4-[(pyridin-4-ylaminooxalyl)-amino]-pentanoic acid], the Ki was 10 to 31.6 nM.
In the case of `Cc1ccncc1NC(=O)C(=O)N[C@H](Cc1ccc(-c2cccc(Cl)c2)cc1)C[C@@H](O)C(=O)O` [Example 4-4, (2R,4R)-5-(3′-Chlorobiphenyl-4-yl)-2-hydroxy-4-[(4-methylpyridin-3-ylaminooxalyl)amino]pentanoic acid], the inhibition constant Ki is 1 to 10 nM.
Turning to `O=C(NOCc1ccccc1)C(=O)N[C@H](Cc1ccc(-c2cccc(Cl)c2)cc1)C[C@@H](O)C(=O)O` [Example 4-5, (2R,4R)-4-(Benzyloxyaminooxalylamino)-5-(3′-chlorobiphenyl-4-yl)-2-hydroxy-pentanoic acid], the Ki is 10 to 31.6 nM.
For `CONC(=O)C(=O)N[C@H](Cc1ccc(-c2cccc(Cl)c2)cc1)C[C@@H](O)C(=O)O` [Example 4-6, (2R,4R)-5-(3′-Chlorobiphenyl-4-yl)-2-hydroxy-4-(methoxyaminooxalylamino)-pentanoic acid], the Ki is 1 to 10 nM.
The same measure, in the same setting: then `O=C(NC1CONC1=O)C(=O)N[C@H](Cc1ccc(-c2cccc(Cl)c2)cc1)C[C@@H](O)C(=O)O` (stereo partly drawn) [Example 4-7, (2R,4R)-5-(3′-Chlorobiphenyl-4-yl)-2-hydroxy-4-[(3-oxo-isoxazolidin-4-ylaminooxalyl)-amino]pentanoic acid], with 1 to 10 nM.
The same measure, in the same setting: the result for `O=C(N[C@H](Cc1ccc(-c2cccc(Cl)c2)cc1)C[C@@H](O)C(=O)O)C(=O)NN1CCOCC1` [Example 4-8, (2R,4R)-5-(3′-Chlorobiphenyl-4-yl)-2-hydroxy-4-[(morpholin-4-ylaminooxalyl)-amino]pentanoic acid] reads 10 to 31.6 nM.
In the case of `O=C(N[C@H](Cc1ccc(-c2cccc(Cl)c2)cc1)C[C@@H](O)C(=O)O)C(=O)N(O)c1ccccc1` [Example 4-9, (2R,4R)-5-(3′-Chlorobiphenyl-4-yl)-2-hydroxy-4-[(hydroxyphenylaminooxalyl)-amino]pentanoic acid], the pKi is given as 8.0-9.0.

For the origin of these results see patent publication US10053417B2, “Neprilysin inhibitors” (THERAVANCE BIOPHARMA R&D IP, LLC, priority 2013, dated 2018).
